Measurements reported in PMC3292553, “Flavonoid Glycosides Isolated from Unique Legume Plant Extracts as Novel Inhibitors of Xanthine Oxidase” (PLoS ONE, 2012).
pIC50, pKi: −log10 of the molar value.

Molecular target: T1, Xanthine oxidase from bovine milk (Bos taurus, UniProt P80457)
T1 construct: Xanthine oxidase from bovine milk and allopurinol were purchased from Sigma-Aldrich; purchased Sigma-Aldrich (St Louis MO, USA); host or cells: bovine milk (natural source)
Test: Assessment of XO activity (formation of uric acid from xanthine, 295 nm)
Assay type: biochemical
Conditions: pure compounds; for Inhibition type: kinetic analysis; for pKi: kinetic analysis (Lineweaver-Burk, Grafit 6); for pIC50: XO inhibition
Protocol: XO activity was determined by measuring the formation of uric acid from xanthine within a set time. Changes in the levels of uric acid produced through the presence of the test samples allow the potency of inhibitors to be assessed. Initially the effect of the polyphenolic fractions and compounds on the inhibition of enzymatic activity was assessed at substrate concentration where maximum velocity was obtained. All initial reaction rates were in the linear scale and were measured over the first 4 min of the reaction. Each assay was performed in triplicates and the optical density was measured using a Hitachi U-1500 Spectrophotometer (San Jose, USA). […] The reaction was initiated through the addition of 43 mU unit of XO diluted in H2O. […] Control samples were prepared identically to the test samples without the addition of the specimen.
The measured absorbance was corrected for the contribution of the tested fractions and the pure polyphenolic compounds.
Statistical computations were carried out using SPSS 13.0 software. For statistical analysis, one-way ANOVA was applied followed by Dunnett's test for multiple pair-wise comparisons. Differences were considered significant at p<0.05. The steady state kinetic parameters (Km and Vmax) were determined (under standard assays conditions) by analyzing formation of uric acid from xanthine under initial rate conditions using the Lineweaver-Burk linearization of the Micaelis-Menten equation. The Ki values and the apparent kinetic parameters Km and Vmax were analyzed with the statistic package Grafit 6 (Erithacus Software, Ltd., Horley, UK).

T1 sequence (P80457 whole entry): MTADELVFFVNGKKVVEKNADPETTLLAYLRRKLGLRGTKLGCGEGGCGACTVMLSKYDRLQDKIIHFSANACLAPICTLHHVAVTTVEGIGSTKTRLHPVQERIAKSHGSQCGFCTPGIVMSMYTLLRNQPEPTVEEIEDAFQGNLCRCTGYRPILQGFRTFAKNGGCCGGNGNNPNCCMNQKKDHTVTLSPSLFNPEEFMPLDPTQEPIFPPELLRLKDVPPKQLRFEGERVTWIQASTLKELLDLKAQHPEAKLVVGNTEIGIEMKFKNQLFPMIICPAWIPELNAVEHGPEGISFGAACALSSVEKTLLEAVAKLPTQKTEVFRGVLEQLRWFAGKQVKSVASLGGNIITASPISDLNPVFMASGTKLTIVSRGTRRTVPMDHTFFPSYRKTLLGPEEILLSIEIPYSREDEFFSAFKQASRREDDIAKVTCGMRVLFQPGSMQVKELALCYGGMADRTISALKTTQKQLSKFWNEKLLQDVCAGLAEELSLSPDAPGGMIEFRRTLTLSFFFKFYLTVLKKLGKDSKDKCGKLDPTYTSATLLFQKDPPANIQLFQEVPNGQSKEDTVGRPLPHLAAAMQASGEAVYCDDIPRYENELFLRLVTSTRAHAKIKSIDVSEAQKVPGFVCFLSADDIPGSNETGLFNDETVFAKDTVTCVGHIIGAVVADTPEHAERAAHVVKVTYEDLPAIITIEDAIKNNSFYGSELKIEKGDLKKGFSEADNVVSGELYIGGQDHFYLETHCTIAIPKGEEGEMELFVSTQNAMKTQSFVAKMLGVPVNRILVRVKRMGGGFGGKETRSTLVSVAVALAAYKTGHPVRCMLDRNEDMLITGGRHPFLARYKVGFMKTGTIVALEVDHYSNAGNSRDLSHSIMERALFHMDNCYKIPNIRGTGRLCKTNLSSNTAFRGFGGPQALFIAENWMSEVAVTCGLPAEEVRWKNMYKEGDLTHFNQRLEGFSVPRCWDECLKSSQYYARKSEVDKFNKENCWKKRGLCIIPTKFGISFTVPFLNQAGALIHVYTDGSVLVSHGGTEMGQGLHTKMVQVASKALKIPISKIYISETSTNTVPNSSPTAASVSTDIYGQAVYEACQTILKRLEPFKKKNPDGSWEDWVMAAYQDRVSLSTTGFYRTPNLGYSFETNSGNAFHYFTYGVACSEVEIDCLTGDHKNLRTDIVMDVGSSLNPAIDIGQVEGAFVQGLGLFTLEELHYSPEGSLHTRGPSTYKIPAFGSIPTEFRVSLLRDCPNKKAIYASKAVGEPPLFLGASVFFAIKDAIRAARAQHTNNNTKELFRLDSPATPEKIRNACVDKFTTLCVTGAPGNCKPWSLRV

SMILES | Inhibition type | pKi | pIC50
Oc1ncnc2[nH]ncc12 [Allopurinol, 4-hydroxypyrazolo (3,4-d) pyrimidine, reference compound] | Competitive | – | –
CC1OC(Oc2cc(O)c3c(=O)c(OC4OC(CO)C(O)C(O)C4OC4OC(C)C(O)C(O)C4O)c(-c4ccc(O)c(O)c4)oc3c2)C(O)C(O)C1O [Compound 1, Quercetin 3-O-[α-L-rhamnopyranosyl(1→2)-β-D-galactopyranosyl]-7-O-α-L-rhamnopyranoside] | Non competitive | 3.94 | –
CC1=CC(=O)CC(C)(C)C1(O)C=CC(C)OC1OC(CO)C(O)C(O)C1O [Compound 3, (6S,9R)-Roseoside] | Non competitive | 3.12 | –
CC1OC(Oc2cc(O)c3c(=O)c(OC4OC(CO)C(O)C(O)C4OC4OC(C)C(O)C(O)C4O)c(-c4ccc(O)cc4)oc3c2)C(O)C(O)C1O [Compound 4a, Kaempferol 3-O-[α-L-rhamnopyranosyl(1→2)-β-D-glucopyranosyl]-7-O-α-L-rhamnopyranoside] | Non competitive | 3.19 | –

Next, values leading:

Inhibition type | pKi | pIC50 | SMILES
– | 3.73 | – | CC1OC(Oc2cc(O)c3c(=O)c(OC4OC(CO)C(O)C(O)C4OC4OC(C)C(O)C(O)C4O)c(-c4ccc(O)c(O)c4)oc3c2)C(O)C(O)C1O [Compound 2, Quercetin 3-O[α-L-rhamnopyranosyl(1→2)-β-D-glucopyranosyl]-7-O-α-L-rhamnopyranoside]
– | 4.30 | – | CC1OC(Oc2cc(O)c3c(=O)c(OC4OC(CO)C(O)C(O)C4OC4OC(C)C(O)C(O)C4O)c(-c4ccc(O)cc4)oc3c2)C(O)C(O)C1O [Compound 4b, Kaempferol 3-O-[α-L-rhamnopyranosyl(1→2)-β-D-galactopyranosyl]-7-O-α-L-rhamnopyranoside]
Non competitive | 3.46 | – | CC1OC(Oc2cc(O)c3c(=O)c(OC4OC(CO)C(O)C(O)C4O)c(-c4ccc(O)cc4)oc3c2)C(O)C(O)C1O [Compound 5, Kaempferol 3-O-β-D-galactopyranosyl-7-O-α-L-rhamnopyranoside]
Non competitive | 3.68 | 3.95 | CC1OC(Oc2cc(O)c3c(=O)c(OC4OCC(O)C(O)C4O)c(-c4ccc(O)cc4)oc3c2)C(O)C(O)C1O [Compound 9, Kaempferol 3-O-α-L-arabinopyranosyl-7-O-α-L-rhamnopyranoside]
Non competitive | 3.75 | 4.15 | CC1OC(Oc2cc(O)c3c(=O)c(OC4OC(CO)C(O)C(O)C4O)c(-c4ccc(O)cc4)oc3c2)C(O)C(O)C1O [Compound 10, Kaempferol 3-O-β-D-glucopyranosyl-7-O-α-L-rhamnopyranoside]
